Earlier results, collected in US6629995B1, “Camptothecin conjugates” (priority 2000, dated 2003).

Legend:
[1] = tested on: human colon cancer xenografts; settings: mouse, in vivo
[2] = administered intravenously
[3] = tested on: nontumorigenic and tumorigenic human cells
[4] = tested on: human tumor xenografts; settings: nude mice
[5] = tested on: beta cells of the pancreas; settings: in vivo

CC[C@@]1(O)C(=O)OCc2c1cc1n(c2=O)Cc2cc3cc4c(cc3nc2-1)OCO4 [10,11 MD, 10,11-Methylendioxy-20(S)-Camptothecin]
anticancer activity against human colon cancer xenografts [1]: high anticancer activity

CC[C@@](O)(C(=O)[O-])c1cc2n(c(=O)c1CO)Cc1cc3ccccc3nc1-2.[Na+] [CPT Na+, camptothecin sodium salt]
potency in clinical trials [2]: low potency | toxicity in clinical trials [2]: high toxicity

CC[C@@]1(O)C(=O)OCc2c1cc1n(c2=O)Cc2cc3ccccc3nc2-1 [CPT, 20(S)-camptothecin]
effect on nontumorigenic cells ([3]; nontumorigenic human cells in vitro): cytostatic | effect on tumorigenic cells ([3]; tumorigenic human cells in vitro): cytotoxic | solubility in water: insoluble in water

CC[C@@]1(O)C(=O)OCc2c1cc1n(c2=O)Cc2cc3c(N)cccc3nc2-1 [Example 9AC, 9-Amino-20(S)-Camptothecin]
anticancer activity against human colon cancer xenografts [1]: high anticancer activity

CC[C@@]1(O)C(=O)OCc2c1cc1n(c2=O)Cc2cc3c([N+](=O)[O-])cccc3nc2-1 [Example 9NC, 9-nitrocamptothecin]
activity against human tumor xenograft models [4]: high activity

CN(N=O)C(=O)N[C@@H]1[C@@H](O)[C@H](O)[C@@H](CO)O[C@@H]1O [Streptozoticin]
accumulation in tissue [5]: preferentially accumulate in the beta cells of the pancreas
